Measured values as given in ChEMBL document CHEMBL1130882, “C-alkylated spiro[benzofuran-3(2H),4'-1'-methyl-piperidine-7-ols] as potent opioids: a conformation-activity study” (Bioorg Med Chem Lett, 1998).

Assays:
[1] = molecular target: Mu-type opioid receptor (Cavia porcellus, UniProt P97266); experiment: Binding affinity against mu opioid receptor was determined in brain membrane preparations from male Hartley guinea-pigs; assay type: cell membranes
[2] = molecular target: Kappa-type opioid receptor (Cavia porcellus, UniProt P41144); experiment: Binding affinity against Opioid receptor kappa 1 was determined in brain membrane preparations from male Hartley guinea-pigs; assay type: cell membranes
Kappa-type opioid receptor, sequence (P41144 whole entry): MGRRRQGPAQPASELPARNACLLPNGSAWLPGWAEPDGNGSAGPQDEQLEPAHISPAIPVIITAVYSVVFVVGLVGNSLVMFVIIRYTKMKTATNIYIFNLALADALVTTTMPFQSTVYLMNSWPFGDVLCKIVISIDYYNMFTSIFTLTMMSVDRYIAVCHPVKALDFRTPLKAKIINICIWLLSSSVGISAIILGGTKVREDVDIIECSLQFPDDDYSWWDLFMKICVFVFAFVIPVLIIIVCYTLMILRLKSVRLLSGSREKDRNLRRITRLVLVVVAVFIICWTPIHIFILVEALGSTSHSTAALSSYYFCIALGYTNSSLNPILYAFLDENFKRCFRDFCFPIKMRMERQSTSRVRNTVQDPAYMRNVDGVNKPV

Mu-type opioid receptor, sequence (P97266 whole entry): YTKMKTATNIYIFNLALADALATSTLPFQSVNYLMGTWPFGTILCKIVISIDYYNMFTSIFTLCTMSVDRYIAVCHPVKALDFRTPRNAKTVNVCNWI

Row | Structure (SMILES) | Ki [1] | Ki [2]
1 | CCC1Oc2c(O)cccc2C12CCN(C)CC2 (racemic) | 102 nM | > 100000 nM
2 | CC1Oc2c(O)cccc2C12CCN(C)CC2 (racemic) | 124 nM | > 100000 nM
3 | CCOC(=O)C1(c2ccccc2)CCN(C)CC1 [MEPERIDINE] | – | > 100000 nM
4 | CN1CCC2(CC1)COc1c(O)cccc12 | 1650 nM | > 100000 nM
5 | CC1CN(C)CCC12COc1c(O)cccc12 (racemic; form 2) | 1020 nM | 505 nM
6 | CC1CN(C)CCC12COc1c(O)cccc12 (racemic; form 1) | 54 nM | 177 nM
